Assay results as given in patent US20250319067A1, “Improved Pharmacokinetics of Tryptamine Prodrugs” (Reunion Neuroscience, Inc., priority 2023, published 2025).

System: healthy females
Test: Phase 1 FIH single ascending dose study: safety and tolerability (AEs)
Assay type: in vivo, human
Experimental: The study was a double-blind, randomized, placebo-controlled Phase 1 single ascending dose study in up to 6 cohorts in healthy females. Eligibility was assessed during a screening period of up to 28 days prior to enrollment. For the treatment period, subjects were admitted to the clinical research unit (CRU) one day prior to the dosing (Day −1). On Day 1, all subjects will received the assigned SC dose of RE104 HCl or placebo in a fed state (after domiciling overnight and consuming a planned evening meal on Day −1 and morning meal on Day 1 while at the CRU). Subjects were allowed to select snacks from a planned menu from 4 hours following dosing. Subjects were discharged from the clinic on Day 2 (−24 hours post-dose) after all required study procedures were completed and if deemed medically fit. Subjects returned to the clinic on Day 10 (±2 days) for a follow up visit.
Six (6) cohorts were enrolled in the study. Six (6) single doses were tested in 6 cohorts (Cohort 1 to Cohort 6) of 8 healthy female subjects (6 active and 2 placebo), as indicated in FIG. 1 and Table 3.
The starting dose was 5.5 mg RE104 HCl. Sentinels were used in all cohorts. Within each cohort, 2 subjects were treated first: 1 subject received RE104 HCl and 1 subject received placebo.
The study was monitored by a safety review committee (SRC). […] Safety, tolerability, and available PK data were assessed by the SRC between each cohort before ascending to the next dose level (Table 3). After each cohort dosing was complete, the SRC met to discuss dose escalation. Escalation to the next higher dose level occurred only after evaluation of the safety and tolerability data up to and including at least 24 hours post-dose of all evaluable subjects in the previous dose cohort. Available PK results were requested for determination of dose escalation, as deemed necessary.
Dosing took place at a time point agreed to with the investigational pharmacy and acceptable to the investigator. RE104 HCl or placebo were administered as a SC injection in the upper arm. Subjects received RE104 HCl or placebo in a fed state. The time of administration of RE104 HCl or placebo was be recorded in the eCRF. The regimen used is outlined in Table 3.
Within each cohort, 2 sentinel subjects were treated first: 1 subject received RE104 HCl and 1 subject received placebo. […] All drug administration was be done under direct medical supervision. Study subjects were overseen during the potentially psychoactive study drug period by professionals trained to monitor psychedelic experiences.

Question: What does the source list for CC(C)N(CCc1c[nH]c2cccc(OC(=O)CCCC(=O)O)c12)C(C)C [RE104]?
Answer: AE Abdominal pain (RE104 5.5 mg, n = 6): 0 n (%); AE Agitation (RE104 5.5 mg, n = 6): 0 n (%); AE Diarrhea (RE104 5.5 mg, n = 6): 0 n (%); AE Distress (RE104 5.5 mg, n = 6): 0 n (%); AE Fatigue (RE104 5.5 mg, n = 6): 0 n (%); AE Feeling hot (RE104 5.5 mg, n = 6): 0 n (%); AE Headache (RE104 5.5 mg, n = 6): 0 n (%); AE Heart rate increased (RE104 5.5 mg, n = 6): 0 n (%); AE Hyperhidrosis (RE104 5.5 mg, n = 6): 0 n (%); AE Muscle twitching (RE104 5.5 mg, n = 6): 0 n (%); AE Musculoskeletal injury (RE104 5.5 mg, n = 6): 0 n (%); AE Nausea (RE104 5.5 mg, n = 6): 1 (16.7) n (%); AE Restlessness (RE104 5.5 mg, n = 6): 0 n (%); AE Sinus tachycardia (RE104 5.5 mg, n = 6): 0 n (%); AE Thirst (RE104 5.5 mg, n = 6): 0 n (%); AE Tremor (RE104 5.5 mg, n = 6): 0 n (%); AE Vomiting (RE104 5.5 mg, n = 6): 1 (16.7) n (%); AEs leading to (RE104 5.5 mg, n = 6): 0 n (%); Any AE (RE104 5.5 mg, n = 6): 2 (33.3) n (%); Any SAE (RE104 5.5 mg, n = 6): 0 n (%); Severe AEs (RE104 5.5 mg, n = 6): 0 n (%); AE Abdominal pain (RE104 11 mg, n = 6): 0 n (%); AE Agitation (RE104 11 mg, n = 6): 0 n (%); AE Diarrhea (RE104 11 mg, n = 6): 0 n (%); AE Distress (RE104 11 mg, n = 6): 0 n (%); AE Fatigue (RE104 11 mg, n = 6): 0 n (%); AE Feeling hot (RE104 11 mg, n = 6): 0 n (%); AE Headache (RE104 11 mg, n = 6): 1 (16.7) n (%); AE Heart rate increased (RE104 11 mg, n = 6): 0 n (%); AE Hyperhidrosis (RE104 11 mg, n = 6): 0 n (%); AE Muscle twitching (RE104 11 mg, n = 6): 0 n (%); AE Musculoskeletal injury (RE104 11 mg, n = 6): 0 n (%); AE Nausea (RE104 11 mg, n = 6): 2 (33.3) n (%); AE Restlessness (RE104 11 mg, n = 6): 0 n (%); AE Sinus tachycardia (RE104 11 mg, n = 6): 0 n (%); AE Thirst (RE104 11 mg, n = 6): 0 n (%); AE Tremor (RE104 11 mg, n = 6): 0 n (%); AE Vomiting (RE104 11 mg, n = 6): 0 n (%); AEs leading to (RE104 11 mg, n = 6): 0 n (%); Any AE (RE104 11 mg, n = 6): 2 (33.3) n (%); Any SAE (RE104 11 mg, n = 6): 0 n (%); Severe AEs (RE104 11 mg, n = 6): 0 n (%); AE Abdominal pain (RE104 22 mg, n = 6): 0 n (%); AE Agitation (RE104 22 mg, n = 6): 0 n (%); AE Diarrhea (RE104 22 mg, n = 6): 1 (16.7) n (%); AE Distress (RE104 22 mg, n = 6): 0 n (%); AE Fatigue (RE104 22 mg, n = 6): 0 n (%); AE Feeling hot (RE104 22 mg, n = 6): 1 (16.7) n (%); AE Headache (RE104 22 mg, n = 6): 0 n (%); AE Heart rate increased (RE104 22 mg, n = 6): 1 (16.7) n (%); AE Hyperhidrosis (RE104 22 mg, n = 6): 1 (16.7) n (%); AE Muscle twitching (RE104 22 mg, n = 6): 0 n (%); AE Musculoskeletal injury (RE104 22 mg, n = 6): 0 n (%); AE Nausea (RE104 22 mg, n = 6): 0 n (%); AE Restlessness (RE104 22 mg, n = 6): 0 n (%); AE Sinus tachycardia (RE104 22 mg, n = 6): 0 n (%); AE Thirst (RE104 22 mg, n = 6): 0 n (%); AE Tremor (RE104 22 mg, n = 6): 0 n (%); AE Vomiting (RE104 22 mg, n = 6): 0 n (%); AEs leading to (RE104 22 mg, n = 6): 0 n (%); Any AE (RE104 22 mg, n = 6): 2 (33.3) n (%); Any SAE (RE104 22 mg, n = 6): 0 n (%); Severe AEs (RE104 22 mg, n = 6): 0 n (%); AE Abdominal pain (RE104 33 mg, n = 9): 2 (22.2) n (%); AE Agitation (RE104 33 mg, n = 9): 0 n (%); AE Diarrhea (RE104 33 mg, n = 9): 0 n (%); AE Distress (RE104 33 mg, n = 9): 0 n (%); AE Fatigue (RE104 33 mg, n = 9): 2 (22.2) n (%); AE Feeling hot (RE104 33 mg, n = 9): 0 n (%); AE Headache (RE104 33 mg, n = 9): 1 (11.1) n (%); AE Heart rate increased (RE104 33 mg, n = 9): 0 n (%); AE Hyperhidrosis (RE104 33 mg, n = 9): 0 n (%); AE Muscle twitching (RE104 33 mg, n = 9): 3 (33.3) n (%); AE Musculoskeletal injury (RE104 33 mg, n = 9): 1 (11.1) n (%); AE Nausea (RE104 33 mg, n = 9): 3 (33.3) n (%); AE Restlessness (RE104 33 mg, n = 9): 3 (33.3) n (%); AE Sinus tachycardia (RE104 33 mg, n = 9): 4 (44.4) n (%); AE Thirst (RE104 33 mg, n = 9): 0 n (%); AE Tremor (RE104 33 mg, n = 9): 1 (11.1) n (%); AE Vomiting (RE104 33 mg, n = 9): 0 n (%); AEs leading to (RE104 33 mg, n = 9): 0 n (%); Any AE (RE104 33 mg, n = 9): 8 (88.9) n (%); Any SAE (RE104 33 mg, n = 9): 0 n (%); Severe AEs (RE104 33 mg, n = 9): 0 n (%); AE Abdominal pain (RE104 38 mg, n = 6): 0 n (%); AE Agitation (RE104 38 mg, n = 6): 2 (33.3) n (%); AE Diarrhea (RE104 38 mg, n = 6): 2 (33.3) n (%); AE Distress (RE104 38 mg, n = 6): 1 (16.7) n (%); AE Fatigue (RE104 38 mg, n = 6): 0 n (%); AE Feeling hot (RE104 38 mg, n = 6): 0 n (%); AE Headache (RE104 38 mg, n = 6): 4 (66.7) n (%); AE Heart rate increased (RE104 38 mg, n = 6): 0 n (%); AE Hyperhidrosis (RE104 38 mg, n = 6): 1 (16.7) n (%); AE Muscle twitching (RE104 38 mg, n = 6): 0 n (%); AE Musculoskeletal injury (RE104 38 mg, n = 6): 0 n (%); AE Nausea (RE104 38 mg, n = 6): 2 (33.3) n (%); AE Restlessness (RE104 38 mg, n = 6): 3 (50.0) n (%); AE Sinus tachycardia (RE104 38 mg, n = 6): 3 (50.0) n (%); AE Thirst (RE104 38 mg, n = 6): 2 (33.3) n (%); AE Tremor (RE104 38 mg, n = 6): 0 n (%); AE Vomiting (RE104 38 mg, n = 6): 0 n (%); AEs leading to (RE104 38 mg, n = 6): 0 n (%); Any AE (RE104 38 mg, n = 6): 5 (83.3) n (%); Any SAE (RE104 38 mg, n = 6): 0 n (%); Severe AEs (RE104 38 mg, n = 6): 1 (16.7) n (%); AE Abdominal pain (RE104 44 mg, n = 3): 0 n (%); AE Agitation (RE104 44 mg, n = 3): 2 n (%); AE Diarrhea (RE104 44 mg, n = 3): 0 n (%); AE Distress (RE104 44 mg, n = 3): 1 n (%); AE Fatigue (RE104 44 mg, n = 3): 0 n (%); AE Feeling hot (RE104 44 mg, n = 3): 0 n (%); AE Headache (RE104 44 mg, n = 3): 0 n (%); AE Heart rate increased (RE104 44 mg, n = 3): 0 n (%); AE Hyperhidrosis (RE104 44 mg, n = 3): 1 n (%); AE Muscle twitching (RE104 44 mg, n = 3): 0 n (%); AE Musculoskeletal injury (RE104 44 mg, n = 3): 0 n (%); AE Nausea (RE104 44 mg, n = 3): 2 n (%); AE Restlessness (RE104 44 mg, n = 3): 1 n (%); AE Sinus tachycardia (RE104 44 mg, n = 3): 2 n (%); AE Thirst (RE104 44 mg, n = 3): 0 n (%); AE Tremor (RE104 44 mg, n = 3): 1 n (%); AE Vomiting (RE104 44 mg, n = 3): 1 n (%); AEs leading to (RE104 44 mg, n = 3): 0 n (%); Any AE (RE104 44 mg, n = 3): 3 n (%); Any SAE (RE104 44 mg, n = 3): 0 n (%); Severe AEs (RE104 44 mg, n = 3): 1 n (%); sinus tachycardia, maximum recorded value (asymptomatic): 115 beats per minute
